Data set [1] concerns the target human histamine 4 receptor (hH4R) (Homo sapiens (Human), UniProt Q9H3N8). Put plainly: Binding affinity of human histamine 4 receptor (hH4R), [3H] labeled histamine displacement. Particulars: hH4R-overexpressed cell membrane, [3H] histamine. Summed up:
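Membranes of hH4R-overexpressing cells (25 μg) incubated with compound and [3H]histamine (diluted to 1 μM before addition) for 30 min at 27° C. Non-specific binding defined with histamine (100 μM before addition); bound radioligand collected by filtration on PEI-presoaked glass fibre, washed with 50 mM Tris-HCl pH 7.4, counted by scintillation (CPM).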

Data set [2] can be described thus: Solubility in artificial gastrointestinal tract solution. Format: physicochemical. The following applies: artificial gastrointestinal tract solution, thermodynamic from solid. Summed up: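 Two media were used: pH 1.2 NaCl/HCl with Triton X-100, and pH 6.5 phosphate buffer with sodium taurocholate and lecithin. Heated sample solutions were filtered to remove undissolved compound, diluted 1:1 with CH3CN, and solubility was measured by liquid chromatography.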

For data set [3] the following is noted: microsomes, 5 μM, pH 7.4.
For data set [4] the following is noted: microsomes, 5 μM, pH 7.4. The source holds these as a separate data set.

Structures are written as SMILES. In brackets after ≈: the same amount, converted by molar mass.

Chain of human histamine 4 receptor (hH4R) (Q9H3N8 whole entry): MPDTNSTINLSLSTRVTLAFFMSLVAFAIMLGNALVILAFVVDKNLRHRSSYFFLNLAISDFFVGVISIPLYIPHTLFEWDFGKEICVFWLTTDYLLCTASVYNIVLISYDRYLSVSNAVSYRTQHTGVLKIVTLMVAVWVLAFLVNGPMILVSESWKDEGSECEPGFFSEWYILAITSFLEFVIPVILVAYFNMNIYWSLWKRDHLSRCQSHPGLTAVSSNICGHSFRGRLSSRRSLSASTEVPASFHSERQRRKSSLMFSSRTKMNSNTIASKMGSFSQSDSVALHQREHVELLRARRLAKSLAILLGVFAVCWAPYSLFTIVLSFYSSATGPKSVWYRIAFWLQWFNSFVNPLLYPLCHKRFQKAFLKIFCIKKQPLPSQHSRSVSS

In general, IC50 refers to the concentration needed to halve the response being measured. A low value points to greater potency in that assay. The term solubility denotes how much of the substance goes into solution per volume. With `Clc1cnc2nc(N3CCN4CCCC4C3)c3nncn3c2c1` (centres unmarked) [Compound 29, 8-Chloro-4-(hexahydropyrrolo[1,2-a]pyrazin-2(1H)-yl)pyrido[2,3-e][1,2,4]triazolo[4,3-a]pyrazine], the IC50 in data set [1] was determined as 49 nM. Besides, in data set [2] (fassgf or other biorelevant, first solution pH 1.2, 2 mg/mL sample, 37° C. 1 hour), the solubility at 1 h stood at 1560 µg/mL (≈ 4.73 mM). In data set [2] (fassif, second solution pH 6.5, 2 mg/mL sample, 37° C. 2 hours), this compound showed a solubility at 2 h of 1990 µg/mL (≈ 6.04 mM). For the same compound, in data set [3], the “Metabolic stability (CLh. int), Human” value was 3950 µL/min/mg. Besides, the “Metabolic stability (CLh. int), Mouse” value in data set [4] was determined as 12070 µL/min/mg.
